Results taken from patent US6664213B1, “Liquid pesticide composition” (Nissan Chemical Industries, Ltd., priority 1999, dated 2003).

Columns and labels:
[1] = tested on: velvetleaf (Abutilon theophrasti); assay: Test Example 5: herbicidal effect of Halosulfuron-methyl spray solution with added polyoxyethylene alkyl ethers on velvetleaf; assay type: in vivo; settings: scale 0 to 100; spray solution of 75% water dispersible granules of Halosulfuron-methyl alone, 0.1 g/a., five-leaf stage, 2 l/a., 27 days after spraying
Procedure: (§1) A biological test was conducted using spray solutions prepared by adding polyoxyethylene alkyl ethers having different HLB values to a herbicide spray solution.
Biological tests were conducted on velvetleaf (Abutilon theophrasti) using spray solutions prepared by adding polyoxyethylene alkyl ethers having different HLB values to a spray solution of 75% water dispersible granules of Halosulfuron-methyl. To confirm a difference in effect between the polyoxyethylene alkyl ethers, the tests were carried out using a lower concentration of Halosulfuron-methyl than usual. A plastic pot having a diameter of 12 cm was filled with soil, and velvetleaf seeds were sowed in the soil. The solutions were sprayed on velvetleaf of five-leaf stage in an amount of 0.1 g per are (g/a.), calculated as pesticidally active ingredient Halosulfuron-methyl. The amount of the solution sprayed was 2 liters per are (l/a.)and 1,000 ppm of a the polyethylene alkyl ethers were added to the solution. Herbicidal effects were observed and evaluated 27 days after spraying.

[2] = tested on: crabgrass(Digitaria ciliaris); assay: Test Example 6: herbicidal effect of Quizalofop-p-ethyl spray solution with added polyoxyethylene alkyl ethers on crabgrass; assay type: in vivo; settings: scale 0 to 100; spray solution of 40% suspension concentrates of Quizalofop-p-ethyl alone, 125 mg/a., 3 weeks after sowing, 2.5 l/a., 21 days after spraying
Procedure: as §1
Biological tests were conducted on crabgrass(Digitaria ciliaris) using spray solutions prepared by adding polyoxyethylene alkyl ethers having different HLB values to a spray solution of 40% suspension concentrates of Quizalofop-p-ethyl. A plastic pot having a diameter of 12 cm was filled with soil, and crabgrass seeds were sowed in the soil. The solutions were sprayed on in an amount of 125 mg per are (mg/a.), calculated as pesticidally active ingredient Quizalofop-p-ethyl, 3 weeks after the seeds were sowed. The amount of the solution sprayed was 2.5 liters per are (1/a.) and 125 ppm of the polyoxyethylene alkyl ethers were added to the solution. Herbicidal effects on crabgrass were observed and evaluated 21 days after spraying.

Structure (SMILES) | Observation evaluation, herbicidal effect of Halosulfuron-methyl on velvetleaf, polyoxyethylene alkyl ether not added [1] | Observation evaluation, herbicidal effect of Quizalofop-p-ethyl on crabgrass, polyoxyethylene alkyl ether not added [2]
COC(=O)c1c(Cl)nn(C)c1S(=O)(=O)NC(=O)Nc1nc(OC)cc(OC)n1 [Halosulfuron-methyl] | 40 | 
CCOC(=O)[C@@H](C)Oc1ccc(Oc2cnc3cc(Cl)ccc3n2)cc1 [Quizalofop-p-ethyl, ethyl=(R)-2-[4-(6-chloroquinoxalin-2-yloxy)phenoxy]propionate] |  | 25
